We go through one molecule from ChEMBL document CHEMBL1955771, “VX-322: a novel dual receptor tyrosine kinase inhibitor for the treatment of acute myelogenous leukemia” (J Med Chem, 2012).

Series [1] addresses T1, Mast/stem cell growth factor receptor Kit (Homo sapiens, UniProt P10721). As to the kind of experiment: Inhibition of human recombinant c-Kit by radiometric assay.
For series [2], the target named is T2, Tyrosine-protein kinase receptor UFO (Homo sapiens, UniProt P30530).
T2 sequence (P30530 whole entry): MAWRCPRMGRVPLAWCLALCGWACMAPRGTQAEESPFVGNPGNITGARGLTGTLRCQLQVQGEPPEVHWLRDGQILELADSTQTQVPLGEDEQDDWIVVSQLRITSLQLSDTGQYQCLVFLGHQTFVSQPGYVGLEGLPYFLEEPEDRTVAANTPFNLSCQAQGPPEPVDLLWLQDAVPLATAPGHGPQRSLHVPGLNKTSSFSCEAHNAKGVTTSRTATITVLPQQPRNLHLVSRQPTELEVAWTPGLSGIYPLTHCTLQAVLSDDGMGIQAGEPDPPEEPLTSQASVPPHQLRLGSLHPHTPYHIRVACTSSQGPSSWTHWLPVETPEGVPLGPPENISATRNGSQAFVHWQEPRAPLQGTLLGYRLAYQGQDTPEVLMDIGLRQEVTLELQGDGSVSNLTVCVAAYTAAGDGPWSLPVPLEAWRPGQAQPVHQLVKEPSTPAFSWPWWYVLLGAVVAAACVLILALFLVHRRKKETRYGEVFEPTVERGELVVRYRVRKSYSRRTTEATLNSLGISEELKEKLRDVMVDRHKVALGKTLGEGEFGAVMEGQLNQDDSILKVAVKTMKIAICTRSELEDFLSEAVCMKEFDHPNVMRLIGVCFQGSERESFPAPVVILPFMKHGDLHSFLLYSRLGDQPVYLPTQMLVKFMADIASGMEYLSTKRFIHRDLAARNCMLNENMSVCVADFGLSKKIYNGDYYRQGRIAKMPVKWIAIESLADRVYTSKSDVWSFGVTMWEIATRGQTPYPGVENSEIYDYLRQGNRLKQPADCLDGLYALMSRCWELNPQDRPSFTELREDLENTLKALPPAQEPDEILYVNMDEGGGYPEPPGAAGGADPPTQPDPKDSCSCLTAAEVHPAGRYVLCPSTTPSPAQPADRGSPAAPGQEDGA
As to the kind of experiment: Inhibition of AXL.

The test system of series [3] is MV4-11. The experiment in a line: Induction of apoptosis in human MV4-11 cells at 100 nM assessed as apoptotic cells after 24 hrs by annexin V and propidium iodide staining method (reference value: […]). Format: functional.
Series [4] deals with MV4-11. As to the kind of experiment: Induction of apoptosis in human MV4-11 cells at 100 nM assessed as late apoptotic cells after 24 hrs by annexin V and propidium iodide staining method (reference value: 5.1 %). Type of series: functional.
For series [5], the system named is MV4-11. The experiment in a line: Induction of apoptosis in human MV4-11 cells at 100 nM assessed as apoptotic cells after 48 hrs by annexin V and propidium iodide staining method (reference value: 2.1 %). Format: functional.
Series [6] deals with MV4-11. The experiment in a line: Induction of apoptosis in human MV4-11 cells at 100 nM assessed as late apoptotic cells after 48 hrs by annexin V and propidium iodide staining method (reference value: 3.4 %). Type of series: functional.
In series [7] the target is Receptor-type tyrosine-protein kinase FLT3 (Homo sapiens, UniProt P36888, ITD). As to the kind of experiment: Inhibition of FLT3 ITD mutant mediated Stat5 phosphorylation in human MV4-11 cells by immunoblot analysis. Format: cell-based. On the technique in general: In western blotting, separated proteins are transferred to a membrane and probed.
Chain of Receptor-type tyrosine-protein kinase FLT3 (P36888 whole entry, looked up, stated change not applied): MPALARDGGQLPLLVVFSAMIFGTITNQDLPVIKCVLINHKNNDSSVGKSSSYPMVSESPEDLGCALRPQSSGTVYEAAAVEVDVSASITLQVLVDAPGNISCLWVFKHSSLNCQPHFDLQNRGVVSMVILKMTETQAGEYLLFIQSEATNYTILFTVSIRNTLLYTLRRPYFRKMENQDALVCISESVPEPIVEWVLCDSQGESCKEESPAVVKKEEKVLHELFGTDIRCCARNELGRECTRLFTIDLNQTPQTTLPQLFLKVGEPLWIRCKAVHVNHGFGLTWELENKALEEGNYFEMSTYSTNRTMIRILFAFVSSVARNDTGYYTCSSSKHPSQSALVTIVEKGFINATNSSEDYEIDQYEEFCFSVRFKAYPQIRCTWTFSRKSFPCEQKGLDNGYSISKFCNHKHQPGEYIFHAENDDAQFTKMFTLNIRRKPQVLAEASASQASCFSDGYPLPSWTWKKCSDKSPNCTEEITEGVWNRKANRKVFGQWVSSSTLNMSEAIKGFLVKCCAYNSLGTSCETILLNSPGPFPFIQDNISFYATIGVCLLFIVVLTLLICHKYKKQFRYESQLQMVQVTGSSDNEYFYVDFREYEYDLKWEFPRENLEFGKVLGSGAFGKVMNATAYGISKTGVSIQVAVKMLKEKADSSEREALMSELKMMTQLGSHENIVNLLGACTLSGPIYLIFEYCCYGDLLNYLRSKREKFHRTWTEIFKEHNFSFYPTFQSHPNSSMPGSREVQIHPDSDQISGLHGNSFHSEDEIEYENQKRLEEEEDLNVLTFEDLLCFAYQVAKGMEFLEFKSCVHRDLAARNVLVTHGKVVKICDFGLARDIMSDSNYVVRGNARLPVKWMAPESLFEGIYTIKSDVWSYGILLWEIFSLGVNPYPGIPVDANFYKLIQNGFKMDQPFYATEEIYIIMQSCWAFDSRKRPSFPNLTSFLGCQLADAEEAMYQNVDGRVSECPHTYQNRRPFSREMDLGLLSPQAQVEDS
The target of series [8] is T1, Mast/stem cell growth factor receptor Kit. The experiment in a line: Inhibition of SCF-induced phosphorylation of c-KIT in human TF1 cells after 1 hr by immunoblot analysis. Format: cell-based, TF-1.
Series [9] relates to BaF3. As to the kind of experiment: Antitumor activity against mouse BA/F3 cells expressing FLT3-ITD mutant xenografted in BALB/c mouse myeloproliferative model assessed as increase in host survival days at 5 mg/kg, po qd relative to control (reference value: 20 days). The arrangement: dose 5 mg/kg. Format: functional, organism-based.
In series [10] the test system is BaF3. As to the kind of experiment: Antitumor activity against mouse BA/F3 cells expressing FLT3-ITD mutant xenografted in BALB/c mouse myeloproliferative model assessed as increase in host survival days at 0.25 mg/kg, po qd relative to control (reference value: 20 days). Format: functional, organism-based. The arrangement: dose 0.25 mg/kg.
Series [11] concerns BaF3. As to the kind of experiment: Antitumor activity against mouse BA/F3 cells expressing FLT3-ITD mutant xenografted in BALB/c mouse myeloproliferative model assessed as increase in host survival days at 0.05 mg/kg, po qd relative to control (reference value: 20 days). Type of series: functional, organism-based. The arrangement: dose 0.05 mg/kg.
Series [12] can be described thus: Half life in BALB/c mouse. Type of series: ADME, organism-based. As to conditions: in vivo.
Series [13] concerns TF-1. The experiment in a line: cells. As to conditions: Homo sapiens, TF-1, 72 h.
Description: Cytotoxicity against human TF1 cells expressing wild type c-KIT assessed as cell viability after 72 hrs by resazurin dye based fluorescence assay
The test system of series [14] is TF-1. The experiment in a line: cells. The following applies: Homo sapiens, TF-1, 72 h. The source holds these as a separate data set.
Description: Cytotoxicity against human TF1 cells expressing PDGFR-beta assessed as cell viability after 72 hrs by resazurin dye based fluorescence assay
The test system of series [15] is TF-1. The experiment in a line: cells. The following applies: Homo sapiens, TF-1, 72 h. The source holds these as a separate data set.
Description: Cytotoxicity against human TF1 cells expressing FMS assessed as cell viability after 72 hrs by resazurin dye based fluorescence assay
The test system of series [16] is MV4-11. The experiment in a line: cells. The following applies: Homo sapiens, MV4-11, 72 h.
Description: Cytotoxicity against human MV4-11 cells expressing FLT3-ITD mutation assessed as cell viability after 72 hrs by resazurin dye based fluorescence assay
For another series, the system named is Kasumi 1. As to the kind of experiment: cells. The following applies: Homo sapiens, Kasumi 1, 72 h.
A further series has as its system THP-1. The experiment in a line: cells. As to conditions: Homo sapiens, THP-1, 72 h.
Series [17] is described as follows: cells. The following applies: Homo sapiens, Leukemia cell, 72 h.
Description: Cytotoxicity against human primary leukemia cells isolated from acute myeloid leukemia patient expressing wild type FLT3 assessed as cell viability after 72 hrs by luciferase assay
Series [18] can be described thus: cells. As to conditions: Homo sapiens, Leukemia cell, 72 h. This is another data set of the same source.
Description: Cytotoxicity against human primary leukemia cells isolated from acute myeloid leukemia patient expressing FLT3-D835Y mutation assessed as cell viability after 72 hrs by luciferase assay

T1 sequence (P10721 whole entry): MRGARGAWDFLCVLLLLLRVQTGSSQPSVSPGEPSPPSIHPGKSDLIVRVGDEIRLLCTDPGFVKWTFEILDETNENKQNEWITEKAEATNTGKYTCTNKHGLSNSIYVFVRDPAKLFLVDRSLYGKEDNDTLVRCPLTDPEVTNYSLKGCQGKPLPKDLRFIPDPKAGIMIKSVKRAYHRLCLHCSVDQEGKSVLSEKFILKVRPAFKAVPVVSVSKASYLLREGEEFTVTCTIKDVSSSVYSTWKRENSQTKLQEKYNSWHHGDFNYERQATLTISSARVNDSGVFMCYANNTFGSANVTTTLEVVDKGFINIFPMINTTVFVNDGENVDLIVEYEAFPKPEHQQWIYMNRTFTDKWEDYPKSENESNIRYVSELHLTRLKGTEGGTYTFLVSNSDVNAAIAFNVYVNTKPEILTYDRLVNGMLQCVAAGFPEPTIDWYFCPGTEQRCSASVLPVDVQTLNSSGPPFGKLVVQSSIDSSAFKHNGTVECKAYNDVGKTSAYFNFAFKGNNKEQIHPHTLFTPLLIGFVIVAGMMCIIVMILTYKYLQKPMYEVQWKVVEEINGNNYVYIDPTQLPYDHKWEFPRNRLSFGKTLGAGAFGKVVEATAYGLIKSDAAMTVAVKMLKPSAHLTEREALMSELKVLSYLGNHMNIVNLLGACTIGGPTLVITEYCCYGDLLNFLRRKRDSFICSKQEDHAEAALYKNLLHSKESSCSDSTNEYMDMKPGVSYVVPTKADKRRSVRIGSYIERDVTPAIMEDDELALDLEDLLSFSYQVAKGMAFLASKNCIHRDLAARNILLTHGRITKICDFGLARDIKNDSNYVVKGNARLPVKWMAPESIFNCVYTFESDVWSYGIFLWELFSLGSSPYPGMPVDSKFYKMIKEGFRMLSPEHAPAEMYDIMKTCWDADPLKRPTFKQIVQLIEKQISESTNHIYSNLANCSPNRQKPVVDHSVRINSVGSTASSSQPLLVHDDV
Description for Kasumi 1: Cytotoxicity against human Kasumi-1 cells expressing c-KIT assessed as cell viability after 72 hrs by resazurin dye based fluorescence assay
Description for THP-1: Cytotoxicity against human THP1 cells assessed as cell viability after 72 hrs by resazurin dye based fluorescence assay

On to `Nc1nc(Nc2ccc([C@H]3CC[C@H](N4CCOCC4)CC3)cc2)nn1-c1ccccn1`, for which the inhibition constant Ki (as a rule, the equilibrium dissociation constant of an inhibitor or competing ligand from its target) in series [1] is less than 1 nM; in series [2] it was 40 nM. For the same molecule, the Activity in the series with MV4-11 [3] was found to be 8.4%; in the series with MV4-11 [4], 32.5%; with MV4-11 [5] it was 26.3%; in the series on MV4-11 [6] it was 42.8%. Further, the IC50 – broadly, the concentration needed to halve the response being measured – in series [7] was 1.3 nM; in [8] it was 4 nM; in the series on TF-1 [13] it was 1.6 nM; with TF-1 [14] it was 330 nM; in the series with TF-1 [15], more than 4000 nM; in the series with MV4-11 [16], 0.2 nM. Further, the IC50 with Kasumi 1 is 30 nM; with THP-1, more than 4000 nM; in “cells [17]”, 20 nM; in “cells [18]” it was 220 nM. Also, the inhibition entry in series [8] (TF-1) is “Dose-dependent effect”. Besides, the MSD stood at 62 days in the series with BaF3 [9], 25 days in the series on BaF3 [10] and 24 days in the series on BaF3 [11]. In addition, the half-life (commonly the time needed for the level to fall by half in the phase considered) in [12] is 15 h.
